≈ marks a conversion by molar mass, not a printed value. Read-outs that look alike come from different tables or passages of the source.
How the values were obtained:
Type in all cases: physicochemical
[1] = Kinetic solubility of Compound 1 Lot II, visually estimated at ambient temperature; conditions: thermodynamic from solid
Experimental: Kinetic solubility of Compound 1 Lot II was visually estimated at ambient temperature (Table 22). Aliquots of various solvents were added to weighed samples of Compound 1 Lot II with agitation at ambient temperature until complete dissolution was achieved, as judged by visual observation. If dissolution occurred after the addition of the first aliquot, values were reported as “>”.

[2] = Dynamic vapor sorption (DVS) hygroscopicity; conditions: for Hysteresis: in % (unit assumed)
Experimental: Automated vapor sorption (VS) data were collected on a Surface Measurement System DVS Intrinsic instrument. Samples were not dried prior to analysis. Sorption and desorption data were collected over a range from 5% to 95% RH at 10% RH increments under a nitrogen purge. The equilibrium criterion used for analysis was less than 0.0100% weight change in 5 minutes with a maximum equilibration time of 3 hours. Data were not corrected for the initial moisture content of the samples.

[3] = Variable relative humidity XRPD (VRH-XRPD)
Experimental: XRPD patterns were collected with a PANalytical X'Pert PRO MPD diffractometer using an incident beam of Cu Kα radiation produced using a long, fine-focus source and a nickel filter. The diffractometer was configured using the symmetric Bragg-Brentano geometry. Data were collected and analyzed using Data Collector software v. 5.5. Prior to the analysis, a silicon specimen (NIST SRM 640f) was analyzed to verify the observed position of the Si 111 peak is consistent with the NIST-certified position. A specimen of the sample was packed in a nickel-coated copper well. Antiscatter slits (SS) were used to minimize the background generated by air. Soller slits for the incident and diffracted beams were used to minimize broadening from axial divergence. Diffraction patterns were collected using a scanning position-sensitive detector (X'Celerator) located 240 mm from the sample and Data Collector software v. 5.5.
An Anton Paar temperature-humidity chamber (THC) was used while collecting in-situ XRPD patterns as a function of humidity. The temperature of the specimen was changed with a Peltier thermoelectric device located directly under the specimen holder and monitored with a platinum-100 resistance sensor located in the specimen holder. The thermoelectric device was powered and controlled by an Anton Paar TCU 50 interfaced with Data Collector. The humidity was generated with an RH-200 manufactured by VTI Inc. and carried by a flow of nitrogen gas. The humidity was monitored by a HygroClip sensor manufactured by Rotronic located next to the specimen inside the THC.
VRH-XRPD analysis was conducted to help determine water activity boundary for the solid-state conversion between hydrated Form A and anhydrous Form B. This method was utilized due the observed high tendency of Compound 1 to form solvates, which precluded the use of solvent-mediated approach.
Overall, two VRH-XRPD experiments were conducted to qualitatively evaluate RH conditions leading to predominance of Form A over Form B and vice versa. The kinetic component was not assessed.
The first VRH-XRPD experiment was conducted with a goal of observing dehydration of hydrated Form A. An initial XRPD scan was, therefore, acquired on Form A equilibrated in-situ at ambient RH for 45 minutes, which at the time of the analysis was ˜30%. The XRPD pattern from this scan was consistent with Form A (FIG. 39, top).
XRPD patterns were collected throughout the course of the experiment, each with a 10 minute scan.
XRPD patterns were collected throughout the course of the experiment, each with a 10 minute scan. The XRPD patterns remained Form B until the RH reached approximately 60% RH, where Form A became the primary phase with some Form B remaining (FIG. 41, top two spectra). Further decrease of Form B was observed through the remainder of the 60% RH hold at which point the experiment ended (FIG. 41, bottom two spectra). Complete conversion to Form A from Form B was not observed under these conditions.

[4] = Target RH 5.0%, listed as Lot II
[5] = Target RH 15.0%, listed as Lot II
[6] = Target RH 25.0%, listed as Lot II
[7] = Target RH 35.0%, listed as Lot II
[8] = Target RH 45.0%, listed as Lot II
[9] = Target RH 55.0%, listed as Lot II
[10] = Target RH 65.0%, listed as Lot II
[11] = Target RH 75.0%, listed as Lot II
[12] = Target RH 85.0%, listed as Lot II
[13] = Target RH 95.0%, listed as Lot II
[14] = desorption from 95% to 5% RH, listed as Lot II
[15] = sorption from 5% to 95% RH, listed as Lot II

For `CC(=O)Nc1cc(Oc2cnc3nc(Nc4cc(C(F)(F)F)cn(C)c4=O)n(C)c3c2C#N)ccn1` [Compound 1 Lot II, N-(4-((7-cyano-1-methyl-2-((1-methyl-2-oxo-5-(trifluoromethyl)-1,2-dihydropyridin-3-yl)amino)-1H-imidazo[4,5-b]pyridin-6-yl)oxy)pyridin-2-yl)acetamide], the solubility ([1]; 5:95 HFIPA/H2O (v/v), aqueous with cosolvent or surfactant or cyclodextrin, 5:95 HFIPA/H2O (v/v), ambient temperature, read-out: Solubility (mg/mL)) was < 1 mg/mL, the solubility ([1]; 50:50 DMA/H2O (v/v), aqueous with cosolvent or surfactant or cyclodextrin, 50:50 DMA/H2O (v/v), ambient temperature, read-out: Solubility (mg/mL)) was < 1 mg/mL and the solubility ([1]; 50:50 MeOH/CHCl3 (v/v), organic solvent or mixture, 50:50 MeOH/CHCl3 (v/v), ambient temperature, read-out: Solubility (mg/mL)) was 5 to 20 mg/mL (≈ 10 to 40.1 mM). The solubility ([1]; 50:50 MeOH/DCM (v/v), organic solvent or mixture, 50:50 MeOH/DCM (v/v), ambient temperature, read-out: Solubility (mg/mL)) was 5 to 20 mg/mL (≈ 10 to 40.1 mM), the solubility ([1]; 50:50 MeOH/H2O (v/v), aqueous with cosolvent or surfactant or cyclodextrin, 50:50 MeOH/H2O (v/v), ambient temperature, read-out: Solubility (mg/mL)) was < 1 mg/mL and the solubility ([1]; 50:50 TFE/H2O (v/v), aqueous with cosolvent or surfactant or cyclodextrin, 50:50 TFE/H2O (v/v), ambient temperature, read-out: Solubility (mg/mL)) was 1 to 4.9 mg/mL (≈ 2.01 to 9.83 mM). The solubility ([1]; 50:50 THF/H2O (v/v), aqueous with cosolvent or surfactant or cyclodextrin, 50:50 THF/H2O (v/v), ambient temperature, read-out: Solubility (mg/mL)) was 1 to 4.9 mg/mL (≈ 2.01 to 9.83 mM), the solubility ([1]; 50:50 acetone/water (v/v), aqueous with cosolvent or surfactant or cyclodextrin, 50:50 acetone/water (v/v), ambient temperature, read-out: Solubility (mg/mL)) was 1 to 4.9 mg/mL (≈ 2.01 to 9.83 mM) and the solubility ([1]; ACN, organic solvent or mixture, ACN, ambient temperature, read-out: Solubility (mg/mL)) was < 1 mg/mL. For the same compound, the solubility ([1]; AcOH, organic solvent or mixture, AcOH, ambient temperature, read-out: Solubility (mg/mL)) was 5 to 20 mg/mL (≈ 10 to 40.1 mM), the solubility ([1]; CHCl3, organic solvent or mixture, CHCl3, ambient temperature, read-out: Solubility (mg/mL)) was < 1 mg/mL and the solubility ([1]; DCM, organic solvent or mixture, DCM, ambient temperature, read-out: Solubility (mg/mL)) was < 1 mg/mL. For the same compound, the solubility ([1]; DMA, organic solvent or mixture, DMA, ambient temperature, read-out: Solubility (mg/mL)) was 5 to 20 mg/mL (≈ 10 to 40.1 mM), the solubility ([1]; DMF, organic solvent or mixture, DMF, ambient temperature, read-out: Solubility (mg/mL)) was 1 to 4.9 mg/mL (≈ 2.01 to 9.83 mM) and the solubility ([1]; DMSO, organic solvent or mixture, DMSO, ambient temperature, read-out: Solubility (mg/mL)) was 5 to 20 mg/mL (≈ 10 to 40.1 mM). The solubility ([1]; H2O, water, H2O, ambient temperature, read-out: Solubility (mg/mL)) was < 1 mg/mL, the solubility ([1]; HFIPA, organic solvent or mixture, HFIPA, ambient temperature, read-out: Solubility) was 84 mg/mL (≈ 169 mM) and the solubility ([1]; HFIPA, organic solvent or mixture, HFIPA, ambient temperature, read-out: Solubility (mg/mL)) was 5 to 20 mg/mL (≈ 10 to 40.1 mM). For the same compound, the solubility ([1]; MeOH, organic solvent or mixture, MeOH, ambient temperature, read-out: Solubility (mg/mL)) was < 1 mg/mL, the solubility ([1]; NMP, organic solvent or mixture, NMP, ambient temperature, read-out: Solubility (mg/mL)) was 5 to 20 mg/mL (≈ 10 to 40.1 mM) and the solubility ([1]; TFE, organic solvent or mixture, TFE, ambient temperature, read-out: Solubility (mg/mL)) was 5 to 20 mg/mL (≈ 10 to 40.1 mM). The solubility ([1]; THF, organic solvent or mixture, THF, ambient temperature, solution almost completely clear after 24 h, read-out: Solubility (mg/mL)) was 1 to 4.9 mg/mL (≈ 2.01 to 9.83 mM), the solubility ([1]; THF, organic solvent or mixture, THF, left at ambient temperature overnight, read-out: Solubility) was ≥ 1 mg/mL and the solubility ([1]; acetone, organic solvent or mixture, Acetone, ambient temperature, read-out: Solubility (mg/mL)) was < 1 mg/mL. The solubility ([1]; ethylene glycol, organic solvent or mixture, Ethylene glycol, ambient temperature, read-out: Solubility (mg/mL)) was < 1 mg/mL, the solubility ([1]; organic solvent or mixture, AcOH, DMF, DMSO, 50:50 MeOH/DCM, 50:50 MeOH/CHCl3, NMP, TFE, and 50:50 TFE/H2O, ambient temperature, read-out: Solubility (limited solubility values)) was 1 to 20 mg/mL (≈ 2.01 to 40.1 mM) and the “Desorp Mass Change (%)” value [2, 4] was −0.019%. The “Sorp Mass Change (%)” value [2, 4] was 0.000%, the “Desorp Mass Change (%)” value [2, 5] was 0.332% and the “Sorp Mass Change (%)” value [2, 5] was 0.152%. For the same compound, the Hysteresis [2, 5] was 0.180, the “Desorp Mass Change (%)” value [2, 6] was 5.623% and the “Sorp Mass Change (%)” value [2, 6] was 0.250%. For the same compound, the Hysteresis [2, 6] was 5.373, the “Desorp Mass Change (%)” value [2, 7] was 6.984% and the “Sorp Mass Change (%)” value [2, 7] was 1.468%. The Hysteresis [2, 7] was 5.516, the “Desorp Mass Change (%)” value [2, 8] was 7.374% and the “Sorp Mass Change (%)” value [2, 8] was 4.861%. For the same compound, the Hysteresis [2, 8] was 2.513, the “Desorp Mass Change (%)” value [2, 9] was 7.842% and the Sorp Mass Change (%) [2, 9] was 6.99%. For the same compound, the Hysteresis [2, 9] was 0.848, the “Desorp Mass Change (%)” value [2, 10] was 8.505% and the “Sorp Mass Change (%)” value [2, 10] was 7.697%. The Hysteresis [2, 10] was 0.808, the “Desorp Mass Change (%)” value [2, 11] was 8.972% and the “Sorp Mass Change (%)” value [2, 11] was 8.454%. The Hysteresis [2, 11] was 0.518, the “Desorp Mass Change (%)” value [2, 12] was 9.206% and the “Sorp Mass Change (%)” value [2, 12] was 9.042%. For the same compound, the Hysteresis [2, 12] was 0.164, the “Desorp Mass Change (%)” value [2, 13] was 9.408% and the “Sorp Mass Change (%)” value [2, 13] was 9.408%. For the same compound, the “DVS weight loss upon desorption” value [2, 14] was 9.4%, the “DVS weight loss upon desorption as water” value [2, 14] was “approximately 2.9 mol/mol H2O” and the “post-DVS XRPD” value ([2]; solid recovered after DVS cycle, listed as Lot II) was “mostly Form B with some peaks attributed to Form O present”. The DVS weight gain [2, 15] was 9.4%, the “DVS weight gain as water uptake” value [2, 15] was “approximately 2.9 mol/mol H2O” and the DVS weight gain ([2]; sorption from 25% to 55% RH) was 6.7%. The “DVS weight gain as water uptake” value ([2]; sorption from 25% to 55% RH) was ~2.0 mol/mol H2O and the DVS hysteresis observation ([2]; sorption/desorption 5-95% RH, listed as Lot II) was “Hysteresis was observed”.
For `CC(=O)Nc1cc(Oc2cnc3nc(Nc4cc(C(F)(F)F)cn(C)c4=O)n(C)c3c2C#N)ccn1` [Compound 1 Form B, N-(4-((7-cyano-1-methyl-2-((1-methyl-2-oxo-5-(trifluoromethyl)-1,2-dihydropyridin-3-yl)amino)-1H-imidazo[4,5-b]pyridin-6-yl)oxy)pyridin-2-yl)acetamide], the “RH at which Form A became the primary phase” value ([3]; Experiment 2, RH incrementally increased from 15%, starting from Form B) was “approximately 60 % RH”, the “RH below which the form likely exists” value ([3]; VRH-XRPD and DVS data combined) was “below 20 % RH” and the “RH up to which the form may be kinetically stable” value ([3]; VRH-XRPD and DVS data combined) was 40-60 % RH.
